What was measured:
HPV16 = assay: Inhibition of viral replication in cells that maintain HPV16 DNA, viral DNA quantified by real-time PCR; assay type: cell-based, Human papilloma virus; details: cells maintaining HPV16 cultured 72 hours with polyamide; vs DMSO control; highest dose tested 10 μM
Description: (§1) Table 1a lists a number of exemplary polyamides synthesized in accordance with the present invention. The HPLC/MW values given in Table 1b were obtained using low resolution high pressure liquid chromatography/mass spectrometry (LR HPLC/MS), which provides moderate precision masses of single isotopomers rather than average molecular weights or exact masses. Table 2 presents a summary of measured IC50 values of certain of these polyamides against HPV16, HPV18 and HPV31. The IC50 is the concentration of compound required for 50% inhibition of viral replication in vitro. The polyamides were tested in cells that maintain HPV16, HPV18 or HPV31 DNA. Cells maintaining the selected HPV were cultured for 72 hours in the presence of the polyamide. Viral DNA was then quantified using real-time PCR and compared to vehicle (DMSO)-treated control cultures. […] Table 3 presents a summary of measured IC50 and IC90 values of certain of these polyamides against HPV16, HPV18 and HPV31.

HPV18 = assay: Inhibition of viral replication in cells that maintain HPV18 DNA, viral DNA quantified by real-time PCR; assay type: cell-based, Human papilloma virus; details: cells maintaining HPV18 cultured 72 hours with polyamide; vs DMSO control; highest dose tested 10 μM
Description: as §1

HPV31 = assay: Inhibition of viral replication in cells that maintain HPV31 DNA, viral DNA quantified by real-time PCR; assay type: cell-based, Human papilloma virus; details: cells maintaining HPV31 cultured 72 hours with polyamide; vs DMSO control; highest dose tested 10 μM
Description: as §1

[1] = test system: sequence of HPV16 (365 bp: 7662-122); assay: DNase I footprinting experiment; assay type: binding, Human papilloma virus; details: polyamide 2 nM and 5 nM; DNA 200 pM; DMSO and CHAPS; 37° C. for 5-6 hrs
Protocol: FIG. 9 illustrates a footprinting experiment of NV1087 on a sequence of HPV16 (365 bp: 7662-122). All reactions were carried out in presence of DMSO and CHAPS, and the final DNA concentration was 200 pM. The polyamide concentration varied (2 nM and 5 nM). Reactions were incubated with polyamide at 37° C. for 5-6 hrs.

CN(CCCN)CCCNC(=O)CCNC(=O)c1cc(NC(=O)CCNC(=O)c2cc(NC(=O)c3cc(NC(=O)c4cc(NC(=O)CCNC(=O)c5cc(NC(=O)c6cc(NC(=O)CCNC(=O)c7cc(NC(=O)CCCNC(=O)c8nc(NC(=O)c9cc(NC(=O)CCNC(=O)c%10cc(NC(=O)c%11cc(NC(=O)CCNC(=O)c%12cc(NC(=O)c%13cc(NC(=O)c%14cc(N=C(N(C)C)N(C)C)cn%14C)cn%13C)cn%12C)cn%11C)cn%10C)cn9C)cn8C)cn7C)cn6C)cn5C)cn4C)cn3C)cn2C)cn1C.O=C(O)C(F)(F)F.O=C(O)C(F)(F)F.O=C(O)C(F)(F)F.O=C(O)C(F)(F)F [NV1087, TMG-PyPyPyβPyPyβPyIm-γ-PyβPyPyβPyPyPyβPyβ-Ta•4TFA]
IC50 (HPV16): 31 nM | IC50 (HPV18): 24 nM | IC50 (HPV31): 16 nM | protection of DNA from digestion by DNase I (decrease in peak heights) [1]: protects the DNA from digestion by DNase I

CN(CCCN)CCCNC(=O)CCNC(=O)c1cc(NC(=O)c2cc(NC(=O)c3cc(NC(=O)CCNC(=O)c4cc(NC(=O)c5cc(NC(=O)c6cc(NC(=O)CCNC(=O)c7cc(NC(=O)c8cc(NC(=O)CCCNC(=O)c9cc(NC(=O)c%10cc(NC(=O)CCNC(=O)c%11nc(NC(=O)c%12cc(NC(=O)c%13cc(NC(=O)CCNC(=O)c%14cc(N=C(N(C)C)N(C)C)cn%14C)cn%13C)cn%12C)cn%11C)cn%10C)cn9C)cn8C)cn7C)cn6C)cn5C)cn4C)cn3C)cn2C)cn1C [NV1078, TMG-PyβPyPyImβPyPy-γ-PyPyβPyPyPyβPyPyPyβ-Ta•4TFA]
IC50 (HPV16): 32 nM | IC50 (HPV18): 27 nM | IC50 (HPV31): 35 nM

CN(C)CCCNC(=O)CCNC(=O)c1cc(NC(=O)CCNC(=O)c2cc(NC(=O)c3cc(NC(=O)c4cc(NC(=O)CCNC(=O)c5cc(NC(=O)c6cc(NC(=O)c7cc(NC(=O)[C@@H](CCNC(=O)c8cc(NC(=O)CCNC(=O)c9cc(NC(=O)c%10cc(NC(=O)CCNC(=O)c%11cc(NC(=O)c%12cc(NC(=O)c%13cc(N=C(N(C)C)N(C)C)cn%13C)cn%12C)cn%11C)cn%10C)cn9C)cn8C)NC(=O)NCCCN(C)C)cn7C)cn6C)cn5C)cn4C)cn3C)cn2C)cn1C [NV1079, TMG-PyPyPyβPyPyβPy-γNHR″-PyPyPyβPyPyPyβPyβ-Dp•3TFA]
IC50 (HPV16): 42 nM | IC50 (HPV18): 17 nM | IC50 (HPV31): 37 nM

CN(C)CCCNC(=O)CCNC(=O)c1cc(NC(=O)c2cc(NC(=O)c3cc(NC(=O)CCNC(=O)c4cc(NC(=O)c5cc(NC(=O)c6cc(NC(=O)CCNC(=O)c7cc(NC(=O)c8cc(NC(=O)CCCNC(=O)c9cc(NC(=O)c%10cc(NC(=O)CCNC(=O)c%11nc(NC(=O)c%12cc(NC(=O)c%13cc(NC(=O)CCNC(=O)c%14cc(NC(=O)c%15cc(N=C(N(C)C)N(C)C)cn%15C)cn%14C)cn%13C)cn%12C)cn%11C)cn%10C)cn9C)cn8C)cn7C)cn6C)cn5C)cn4C)cn3C)cn2C)cn1C [NV1086, TMG-PyPyβPyPyImβPyPy-γ-PyPyβPyPyPyβPyPyPyβ-Dp•3TFA]
IC50 (HPV16): 43 nM | IC50 (HPV18): 62 nM | IC50 (HPV31): 16 nM

CN(CCCN)CCCNC(=O)CCNC(=O)c1cc(NC(=O)CCNC(=O)c2cc(NC(=O)c3cc(NC(=O)c4cc(NC(=O)CCNC(=O)c5cc(NC(=O)c6cc(NC(=O)CCNC(=O)c7cc(NC(=O)[C@@H](CCNC(=O)c8nc(NC(=O)c9cc(NC(=O)CCNC(=O)c%10cc(NC(=O)c%11cc(NC(=O)CCNC(=O)c%12cc(NC(=O)c%13cc(NC(=O)c%14cc(N=C(N(C)C)N(C)C)cn%14C)cn%13C)cn%12C)cn%11C)cn%10C)cn9C)cn8C)NC(=O)NCCCN(C)CCCN)cn7C)cn6C)cn5C)cn4C)cn3C)cn2C)cn1C [NV1072, TMG-PyPyPyβPyPyβPyIm-γNHR′-PyβPyPyβPyPyPyβPyβ-Ta•6TFA]
IC50 (HPV16): 109 nM | IC50 (HPV18): 216 nM | IC50 (HPV31): 96 nM

CN(CCCN)CCCNC(=O)CCNC(=O)c1cc(NC(=O)CCNC(=O)c2cc(NC(=O)c3cc(NC(=O)c4cc(NC(=O)CCNC(=O)c5cc(NC(=O)c6cc(NC(=O)c7cc(NC(=O)[C@@H](CCNC(=O)c8cc(NC(=O)CCNC(=O)c9cc(NC(=O)c%10cc(NC(=O)CCNC(=O)c%11cc(NC(=O)c%12cc(NC(=O)c%13cc(N=C(N(C)C)N(C)C)cn%13C)cn%12C)cn%11C)cn%10C)cn9C)cn8C)NC(=O)NCCCN(C)CCCN)cn7C)cn6C)cn5C)cn4C)cn3C)cn2C)cn1C [NV1074, TMG-PyPyPyβPyPyβPy-γNHR′-PyPyPyβPyPyPyβPyβ-Ta•5TFA]
IC50 (HPV16): 178 nM | IC50 (HPV18): 41 nM | IC50 (HPV31): 52 nM

CN(CCCN)CCCNC(=O)CCNC(=O)c1cc(NC(=O)CCNC(=O)c2cc(NC(=O)c3cc(NC(=O)c4cc(NC(=O)CCNC(=O)c5cc(NC(=O)c6cc(NC(=O)c7cc(NC(=O)[C@H](N)CCNC(=O)c8cc(NC(=O)CCNC(=O)c9cc(NC(=O)c%10cc(NC(=O)CCNC(=O)c%11cc(NC(=O)c%12cc(NC(=O)c%13cc(N=C(N(C)C)N(C)C)cn%13C)cn%12C)cn%11C)cn%10C)cn9C)cn8C)cn7C)cn6C)cn5C)cn4C)cn3C)cn2C)cn1C [NV1076, TMG-PyPyPyβPyPyβPy-γNH2-PyPyPyβPyPyPyβPyβ-Ta]
IC50 (HPV16): 67 nM | IC50 (HPV18): 48 nM | IC50 (HPV31): 104 nM

CN(C)CCCNC(=O)CCNC(=O)c1cc(NC(=O)CCNC(=O)c2cc(NC(=O)c3cc(NC(=O)c4cc(NC(=O)CCNC(=O)c5cc(NC(=O)c6cc(NC(=O)CCNC(=O)c7cc(NC(=O)[C@H](N)CCNC(=O)c8nc(NC(=O)c9cc(NC(=O)CCNC(=O)c%10cc(NC(=O)c%11cc(NC(=O)CCNC(=O)c%12cc(NC(=O)c%13cc(NC(=O)c%14cc(N=C(N(C)C)N(C)C)cn%14C)cn%13C)cn%12C)cn%11C)cn%10C)cn9C)cn8C)cn7C)cn6C)cn5C)cn4C)cn3C)cn2C)cn1C [NV1075, TMG-PyPyPyβPyPyβPyIm-γNH2-PyβPyPyβPyPyPyβPyβ-Dp•4TFA]
IC50 (HPV16): 124 nM | IC50 (HPV18): 49 nM | IC50 (HPV31): 56 nM

CN(C)CCCNC(=O)CCNC(=O)c1cc(NC(=O)CCNC(=O)c2cc(NC(=O)c3cc(NC(=O)c4cc(NC(=O)CCNC(=O)c5cc(NC(=O)c6cc(NC(=O)CCNC(=O)c7cc(NC(=O)CCCNC(=O)c8nc(NC(=O)c9cc(NC(=O)CCNC(=O)c%10cc(NC(=O)c%11cc(NC(=O)CCNC(=O)c%12cc(NC(=O)c%13cc(N=C(N(C)C)N(C)C)cn%13C)cn%12C)cn%11C)cn%10C)cn9C)cn8C)cn7C)cn6C)cn5C)cn4C)cn3C)cn2C)cn1C [NV1089, TMG-PyPyβPyPyβPyIm-γ-PyβPyPyβPyPyPyβPyβ-Dp•3TFA]
IC50 (HPV16): 68 nM | IC50 (HPV18): 68 nM | IC50 (HPV31): 46 nM

TMG-PyPyβPyPyβ-γNH2-PyPyPyβPyPyPyβPyβ-Ta•4TFA [NV1095]
IC50 (HPV16): 204 nM | IC50 (HPV18): > 10000 nM | IC50 (HPV31): 49 nM

Reference: patent US9133228B2, “Guanidinyl-substituted polyamides useful for treating human papilloma virus” (Nanovir, LLC, priority 2011, dated 2015)
